Measured values published in PubChem BioAssay (NCI).
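96-well plates; 48 h exposure; 5 concentrations. Endpoints by linear interpolation between flanking doses. Not reached: highest tested concentration assigned. TGI: total growth inhibition.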

Key:
Experiment in all cases: NCI anticancer screen, dose series, 48 h
[1] = test system: SNB-78 CNS
[2] = test system: RPMI-8226 leukemia
[3] = test system: SK-MEL-5 melanoma
[4] = test system: SF-539 CNS
[5] = test system: HOP-62 NSCLC
[6] = test system: OVCAR-5 ovarian
[7] = test system: XF 498 CNS
[8] = test system: HT29 colon
[9] = test system: SK-OV-3 ovarian
[10] = test system: CCRF-CEM leukemia
[11] = test system: 786-0 renal
[12] = test system: TK-10 renal
[13] = test system: HCT-116 colon
[14] = test system: COLO 205 colon
[15] = test system: A549 NSCLC
[16] = test system: OVCAR-8 ovarian
[17] = test system: M19-MEL melanoma
[18] = test system: MOLT-4 leukemia
[19] = test system: SK-MEL-28 melanoma
[20] = test system: SF-268 CNS
[21] = test system: OVCAR-3 ovarian
[22] = test system: SN12C renal
[23] = test system: K-562 leukemia
[24] = test system: IGROV1 ovarian
[25] = test system: HOP-92 NSCLC
[26] = test system: NCI-H23 lung
[27] = test system: DMS 114 small cell lung
[28] = test system: UO-31 renal
[29] = test system: HL-60(TB) leukemia
[30] = test system: SF-295 CNS
[31] = test system: UACC-257 melanoma
[32] = test system: DLD-1 colon
[33] = test system: EKVX NSCLC
[34] = test system: LXFL 529 NSCLC
[35] = test system: HCC-2998 colon
[36] = test system: NCI-H226 lung
[37] = test system: KM12 colon
[38] = test system: U251 CNS
[39] = test system: SR leukemia
[40] = test system: SW-620 colon
[41] = test system: SNB-75 CNS
[42] = test system: A498 renal
[43] = test system: UACC-62 melanoma
[44] = test system: SK-MEL-2 melanoma
[45] = test system: HOP-18 NSCLC
[46] = test system: OVCAR-4 ovarian
[47] = test system: KM20L2 colon
[48] = test system: M14 melanoma
[49] = test system: CAKI-1 renal
[50] = test system: RXF 393 renal
[51] = test system: HCT-15 colon
[52] = test system: LOX IMVI melanoma
[53] = test system: ACHN renal
[54] = test system: DMS 273 small cell lung
[55] = test system: MALME-3M melanoma
[56] = test system: SNB-19 CNS
[57] = test system: NCI-H460 lung
[58] = test system: NCI-H522 lung
[59] = test system: RXF-631 renal

O=S(=O)(N/N=C/c1ccc(Cl)c(Cl)c1)c1ccccc1
TGI [1]: > 100 µM | TGI [2]: > 100 µM | TGI [3]: > 100 µM | TGI [4]: > 100 µM | TGI [5]: > 100 µM | TGI [6]: > 100 µM | TGI [7]: > 100 µM | TGI [8]: > 100 µM | TGI [9]: > 100 µM | TGI [10]: > 100 µM | TGI [11]: > 100 µM | TGI [12]: > 100 µM | TGI [13]: > 100 µM | TGI [14]: 39.6 µM | TGI [15]: > 100 µM | TGI [16]: > 100 µM | TGI [17]: > 100 µM | TGI [18]: 84.4 µM | TGI [19]: > 100 µM | TGI [20]: > 100 µM | TGI [21]: > 100 µM | TGI [22]: > 100 µM | TGI [23]: > 100 µM | TGI [24]: > 100 µM | TGI [25]: 48.6 µM | TGI [26]: > 100 µM | TGI [27]: 87 µM | TGI [28]: 94.2 µM | TGI [29]: > 100 µM | TGI [30]: > 100 µM | TGI [31]: > 100 µM | TGI [32]: > 100 µM | TGI [33]: > 100 µM | TGI [34]: > 100 µM | TGI [35]: > 100 µM | TGI [36]: > 100 µM | TGI [37]: > 100 µM | TGI [38]: > 100 µM | TGI [39]: > 100 µM | TGI [40]: > 100 µM | TGI [41]: > 100 µM | TGI [42]: 92.5 µM | TGI [43]: > 100 µM | TGI [44]: > 100 µM | TGI [45]: > 100 µM | TGI [46]: > 100 µM | TGI [47]: > 100 µM | TGI [48]: > 100 µM | TGI [49]: > 100 µM | TGI [50]: 63.2 µM | TGI [51]: > 100 µM | TGI [52]: > 100 µM | TGI [53]: > 100 µM | TGI [54]: > 100 µM | TGI [55]: > 100 µM

CSc1nc(NC2OCC(OC(C)=O)C(OC(C)=O)C2OC(C)=O)c(N=C(C)C(C)=O)c(=O)[nH]1 (stereo not given)
TGI [1]: > 100 µM | TGI [2]: > 100 µM | TGI [3]: > 100 µM | TGI [4]: > 100 µM | TGI [6]: > 100 µM | TGI [7]: > 100 µM | TGI [8]: > 100 µM | TGI [10]: > 100 µM | TGI [12]: > 100 µM | TGI [13]: > 100 µM | TGI [14]: > 100 µM | TGI [56]: > 100 µM | TGI [15]: > 100 µM | TGI [16]: > 100 µM | TGI [18]: > 100 µM | TGI [19]: > 100 µM | TGI [57]: > 100 µM | TGI [20]: > 100 µM | TGI [22]: > 100 µM | TGI [23]: > 100 µM | TGI [24]: > 100 µM | TGI [25]: > 100 µM | TGI [26]: > 100 µM | TGI [27]: > 100 µM | TGI [29]: > 100 µM | TGI [30]: > 100 µM | TGI [31]: > 100 µM | TGI [32]: > 100 µM | TGI [33]: > 100 µM | TGI [34]: > 100 µM | TGI [37]: > 100 µM | TGI [38]: > 100 µM | TGI [39]: > 100 µM | TGI [40]: > 100 µM | TGI [41]: > 100 µM | TGI [42]: > 100 µM | TGI [44]: > 100 µM | TGI [45]: > 100 µM | TGI [46]: > 100 µM | TGI [48]: > 100 µM | TGI [49]: > 100 µM | TGI [50]: > 100 µM | TGI [51]: > 100 µM | TGI [52]: > 100 µM | TGI [53]: > 100 µM | TGI [54]: > 100 µM | TGI [55]: > 100 µM

Cc1ccc(NP(=O)(Oc2ccccc2)N(CCCl)CCCl)cc1 (stereo not given)
TGI [1]: > 100 µM | TGI [2]: > 100 µM | TGI [3]: > 100 µM | TGI [4]: > 100 µM | TGI [5]: > 100 µM | TGI [6]: > 100 µM | TGI [8]: > 100 µM | TGI [9]: > 100 µM | TGI [12]: > 100 µM | TGI [13]: > 100 µM | TGI [14]: > 100 µM | TGI [15]: > 100 µM | TGI [16]: > 100 µM | TGI [17]: > 100 µM | TGI [18]: > 100 µM | TGI [19]: > 100 µM | TGI [20]: > 100 µM | TGI [21]: > 100 µM | TGI [22]: > 100 µM | TGI [23]: > 100 µM | TGI [24]: > 100 µM | TGI [25]: > 100 µM | TGI [26]: > 100 µM | TGI [27]: > 100 µM | TGI [28]: > 100 µM | TGI [29]: > 100 µM | TGI [58]: > 100 µM | TGI [30]: > 100 µM | TGI [31]: > 100 µM | TGI [32]: > 100 µM | TGI [33]: > 100 µM | TGI [34]: > 100 µM | TGI [35]: > 100 µM | TGI [36]: > 100 µM | TGI [59]: > 100 µM | TGI [37]: > 100 µM | TGI [38]: > 100 µM | TGI [39]: > 100 µM | TGI [40]: > 100 µM | TGI [41]: > 100 µM | TGI [42]: > 100 µM | TGI [43]: > 100 µM | TGI [44]: > 100 µM | TGI [45]: > 100 µM | TGI [46]: > 100 µM | TGI [47]: > 100 µM | TGI [48]: > 100 µM | TGI [49]: > 100 µM | TGI [51]: > 100 µM | TGI [53]: > 100 µM | TGI [54]: > 100 µM | TGI [55]: > 100 µM

CCOC(=O)N1C2C=C(C)C(ON2C(=O)c2ccccc2)C2C(C)C(=O)N21 (stereo not given)
TGI [1]: > 100 µM | TGI [2]: > 100 µM | TGI [3]: > 100 µM | TGI [4]: > 100 µM | TGI [5]: > 100 µM | TGI [6]: > 100 µM | TGI [7]: > 100 µM | TGI [8]: > 100 µM | TGI [9]: > 100 µM | TGI [10]: > 100 µM | TGI [11]: > 100 µM | TGI [12]: > 100 µM | TGI [13]: > 100 µM | TGI [14]: > 100 µM | TGI [56]: > 100 µM | TGI [15]: > 100 µM | TGI [16]: > 100 µM | TGI [17]: > 100 µM | TGI [18]: > 100 µM | TGI [19]: > 100 µM | TGI [57]: > 100 µM | TGI [20]: > 100 µM | TGI [21]: > 100 µM | TGI [22]: > 100 µM | TGI [23]: > 100 µM | TGI [24]: > 100 µM | TGI [25]: > 100 µM | TGI [26]: > 100 µM | TGI [27]: > 100 µM | TGI [28]: > 100 µM | TGI [29]: > 100 µM | TGI [30]: > 100 µM | TGI [31]: > 100 µM | TGI [32]: > 100 µM | TGI [33]: > 100 µM | TGI [34]: > 100 µM | TGI [35]: > 100 µM | TGI [36]: > 100 µM | TGI [37]: > 100 µM | TGI [38]: > 100 µM | TGI [39]: > 100 µM | TGI [40]: > 100 µM | TGI [41]: > 100 µM | TGI [42]: > 100 µM | TGI [43]: > 100 µM | TGI [44]: > 100 µM | TGI [45]: > 100 µM | TGI [46]: > 100 µM | TGI [47]: > 100 µM | TGI [48]: > 100 µM | TGI [50]: > 100 µM | TGI [51]: > 100 µM | TGI [52]: > 100 µM | TGI [53]: > 100 µM | TGI [54]: > 100 µM | TGI [55]: > 100 µM
